The values below come from patent US10450263B2, “Benzo annulenes as antiviral agents” (Southern Research Institute, priority 2017, dated 2019).

In series [1] the test system is Chikungunya virus. In words: Evaluation of antiviral activity against Chikungunya virus (EC90). In kind it is cell-based. The source says: EC90 refers to the concentration of the compound that is required for 90% antagonism or inhibition of CHIKV. EC90 also refers to the concentration of a substance that is required for 90% antagonism or inhibition of CHIKV in vivo.
(§1) The compounds below in Table 1 were synthesized with methods identical or analogous to those described herein. The requisite starting materials were commercially available, described in the literature, or readily synthesized by one skilled in the art of organic synthesis.

Series [2] is described as follows: CC50 reported alongside the CHIKV antiviral assay (cytotoxicity). In kind it is cell-based. The note with it: cell line not given.
Source text: as §1

[3] abbreviates: Chikungunya virus, read-out: EC90 (μM) CHIKV, concentration required for 90% inhibition of CHIKV.
Setting [4] is: read-out: EC90 (μM) CHIKV, concentration required for 90% inhibition of CHIKV.

Read-outs that look alike come from different tables or passages of the source.

In the case of `CC(C)(C)c1ccc(C(=O)Nc2cc3c(cc2N)CCCCC3)cc1` [Compound 20, N-(3-amino-6,7,8,9-tetrahydro-5H-benzo[7]annulen-2-yl)-4-(tert-butyl)benzamide], in series [1] (setting [3]), the EC90 was > 30 µM. Moreover, the CC50 (as a rule, the concentration at which the toxic effect on the cells reaches its halfway point) in series [2] is > 30 µM.

Take `COc1cc2c(cc1NC(=O)c1oc3ccccc3c1C)CCCCC2` [Compound 79, N-(3-methoxy-6,7,8,9-tetrahydro-5H-benzo[7]annulen-2-yl)-3-methylbenzofuran-2-carboxamide]: the EC90 in series [1] (setting [3]) is > 10 µM. For the same compound, in series [2], the cytotoxic concentration (CC50) is > 30 µM.

In the case of `COc1cc2c(cc1NC(=O)C13C[C@H]4C[C@@H](C1)C[C@@H](C3)C4)CCCCC2` [Compound 42, (3r,5r,7r)-N-(3-methoxy-6,7,8,9-tetrahydro-5H-benzo[7]annulen-2-yl)adamantane-1-carboxamide], the EC90 in series [1] (setting [3]) amounted to 12.1 µM. Also, in series [2], the CC50 was > 30 µM.

`COc1cc2c(cc1N(C)C(=O)c1ccc(C(C)(C)C)cc1)CCCCC2` [Compound 30]: the EC90 in series [1] (setting [3]) is 14.5 µM. The CC50 in series [2] was > 30 µM.

For the compound `COc1cc2c(cc1NC(=O)c1cnc(C(C)(C)C)nc1)CCCCC2` [Compound 49, 2-(tert-Butyl)-N-(3-methoxy-6,7,8,9-tetrahydro-5H-benzo[7]annulen-2-yl)pyrimidine-5-carboxamide], the EC90 in series [1] (setting [3]) stood at 2.99 µM. The compound further had a CC50 in series [2] of 37.6 µM.

Take `COc1cc2c(cc1NC(=O)c1cc(-c3ccccc3)on1)CCCCC2` [Compound 36, N-(3-methoxy-6,7,8,9-tetrahydro-5H-benzo[7]annulen-2-yl)-5-phenylisoxazole-3-carboxamide]: the EC90 in series [1] (setting [3]) turned out to be 9 µM. Besides, the CC50 in series [2] was > 30 µM.

Consider `CC(C)(C)c1ncc(C(=O)Nc2ccc3c(c2)CCCCC3)s1` [Compound 25, 2-(tert-butyl)-N-(6,7,8,9-tetrahydro-5H-benzo[7]annulen-2-yl)thiazole-5-carboxamide], for which the EC90 in series [1] (setting [3]) was found to be 22.6 µM. Also, in series [2], the CC50 amounted to 15.7 µM.

Regarding `COc1cc2c(cc1NC(=O)c1ccccc1C(C)(C)C)CCCCC2` [Compound 43, 2-(tert-Butyl)-N-(3-methoxy-6,7,8,9-tetrahydro-5H-benzo[7]annulen-2-yl)benzamide], in series [1] (setting [3]), the EC90 stood at 3.2 µM. Moreover, the CC50 in series [2] was > 30 µM.

Regarding `CCc1ccc(C(=O)Nc2cc3c(cc2OC)CCCCC3)cc1` [Compound 56, 4-Ethyl-N-(3-methoxy-6,7,8,9-tetrahydro-5H-benzo[7]annulen-2-yl)benzamide], the EC90 in series [1] (setting [3]) was > 10 µM. Moreover, the CC50 in series [2] is > 30 µM.

As for `CC(C)(C)n1nc(C(=O)Nc2ccc3c(c2)CCCCC3)cc1C(F)(F)F` [Compound 27, 1-(tert-butyl)-N-(6,7,8,9-tetrahydro-5H-benzo[7]annulen-2-yl)-5-(trifluoromethyl)-1H-pyrazole-3-carboxamide], the EC90 in series [1] (setting [3]) is > 10 µM. Also, the CC50 in series [2] is > 30 µM.

With `COc1cc2c(cc1NC(=O)c1cnc(C)cn1)CCCCC2` [Compound 81, N-(3-methoxy-6,7,8,9-tetrahydro-5H-benzo[7]annulen-2-yl)-5-methylpyrazine-2-carboxamide], the EC90 in series [1] (setting [4]) was > 10 µM. In series [2], the CC50 was > 30 µM.

Regarding “3,5-Difluoro-N-(3-methoxy-6,7,8,9-tetrahydro-5H-benzo[7]annulen-2-yl)picolinamide [Compound 77]”, in series [1] (concentration required for 90% inhibition of CHIKV, read-out: EC90 (μM) CHIKV), the EC90 was determined as 2.9 µM. Besides, in series [2], the CC50 was > 30 µM.

In the case of `COc1cc2c(cc1NC(=O)c1ccc(C(C)(C)C#N)cc1)CCCCC2` [Compound 50, 4-(2-Cyanopropan-2-yl)-N-(3-methoxy-6,7,8,9-tetrahydro-5H-benzo[7]annulen-2-yl)benzamide], the EC90 in series [1] (setting [3]) came to 1.16 µM. Moreover, half-maximal cytotoxicity in series [2] (CC50) was put at 3.57 µM.

Regarding `CCOc1cc2c(cc1NC(=O)c1ccc(C(C)(C)C)cc1)CCCCC2` [Compound 84, 4-(tert-Butyl)-N-(3-ethoxy-6,7,8,9-tetrahydro-5H-benzo[7]annulen-2-yl)benzamide], the EC90 in series [1] (setting [3]) was 5.19 µM. This compound returned a CC50 in series [2] of 10 µM.

Turning to `COc1cc2c(cc1NC(=O)c1c[nH]nc1C)CCCCC2` [Compound 69, N-(3-methoxy-6,7,8,9-tetrahydro-5H-benzo[7]annulen-2-yl)-3-methyl-1H-pyrazole-4-carboxamide], the EC90 in series [1] (setting [3]) is 3.1 µM. Also, the CC50 in series [2] was > 30 µM.

As to `CCCOc1cc2c(cc1NC(=O)c1ccc(C(C)(C)C)cc1)CCCCC2` [Compound 86, 4-(tert-Butyl)-N-(3-propoxy-6,7,8,9-tetrahydro-5H-benzo[7]annulen-2-yl)benzamide], the EC90 in series [1] (setting [3]) turned out to be 7 µM. Besides, the CC50 in series [2] was > 30 µM.

Take `CCn1cc(C(=O)Nc2cc3c(cc2OC)CCCCC3)c(C(F)(F)F)n1` [Compound 45, 1-Ethyl-N-(3-methoxy-6,7,8,9-tetrahydro-5H-benzo[7]annulen-2-yl)-3-(trifluoromethyl)-1H-pyrazole-4-carboxamide]: in series [1] (setting [3]), the EC90 was determined as 2.95 µM. For the same compound, half-maximal cytotoxicity in series [2] (CC50) was put at 34.5 µM.

For the compound `COc1cc2c(cc1NC(=O)c1ccc(Cl)cc1)CCCCC2` [Compound 71, 4-Chloro-N-(3-methoxy-6,7,8,9-tetrahydro-5H-benzo[7]annulen-2-yl)benzamide], the EC90 in series [1] (setting [3]) stood at 6.4 µM. Further, in series [2], the CC50 is > 30 µM.

With `COc1cc2c(cc1NC(=O)c1ccc(C(C)(C)C)cc1)CCCC(=O)N2C(C)C` [Compound 63, 4-(tert-butyl)-N-(1-isopropyl-8-methoxy-2-oxo-2,3,4,5-tetrahydro-1H-benzo[b]azepin-7-yl)benzamide], the EC90 in series [1] (setting [3]) is > 30 µM. Moreover, the CC50 in series [2] is > 30 µM.

Consider `CC(C)(C)c1ccc(C(=O)Nc2cc3c(cc2C#N)CCCCC3)cc1` [Compound 12, 4-(tert-Butyl)-N-(3-cyano-6,7,8,9-tetrahydro-5H-benzo[7]annulen-2-yl)benzamide], for which the EC90 in series [1] (setting [3]) worked out at 4.4 µM. In series [2], this compound yielded a CC50 of 17 µM.

Take `COc1cc2c(cc1NC(=O)c1ccc(C3CC3)cc1)CCCCC2` [Compound 80, 4-Cyclopropyl-N-(3-methoxy-6,7,8,9-tetrahydro-5H-benzo[7]annulen-2-yl)benzamide]: the EC90 in series [1] (setting [3]) amounted to 12.3 µM. Besides, the CC50 in series [2] was > 30 µM.

Consider `COc1cc2c(cc1NC(=O)c1ccc(C(C)(C)C(F)(F)F)cc1)CCCCC2` [Compound 52, N-(3-methoxy-6,7,8,9-tetrahydro-5H-benzo[7]annulen-2-yl)-4-(1,1,1-trifluoro-2-methylpropan-2-yl)benzamide], for which the EC90 in series [1] (setting [3]) is 3.47 µM. In addition, the CC50 in series [2] came to 19.1 µM.

For `COc1cc2c(cc1NC(=O)c1cnc(C)s1)CCCCC2` [Compound 33, N-(3-methoxy-6,7,8,9-tetrahydro-5H-benzo[7]annulen-2-yl)-2-methylthiazole-5-carboxamide], the EC90 in series [1] (setting [3]) is > 30 µM. Further, in series [2], the CC50 is > 30 µM.

For the compound `COc1cc2c(cc1NC(=O)CCc1ccc(C(C)(C)C)cc1)CCCCC2` [Compound 68, 3-(4-(tert-Butyl)phenyl)-N-(3-methoxy-6,7,8,9-tetrahydro-5H-benzo[7]annulen-2-yl)propanamide], the EC90 in series [1] (setting [3]) is > 10 µM. The CC50 in series [2] was > 30 µM.

In the case of `COc1cc2c(cc1NC(=O)c1cnc(C)cn1)CCCCC2` [Compound 39, N-(3-Methoxy-6,7,8,9-tetrahydro-5H-benzo[7]annulen-2-yl)-5-methylpyrazine-2-carboxamide], the EC90 in series [1] (setting [4]) was > 30 µM. In series [2], the CC50 was > 30 µM.

For `COc1cc2c(cc1NC(=O)c1ccc(C(C)(C)O)cc1)CCCCC2` [Compound 46, 4-(2-Hydroxypropan-2-yl)-N-(3-methoxy-6,7,8,9-Tetrahydro-5H-benzo[7]annulen-2-yl)benzamide], in series [1] (setting [3]), the EC90 is 2.45 µM. In series [2], this compound yielded a CC50 of 79.2 µM.

For the compound `COc1cc2c(cc1NC(=O)c1ccc(C(O)(C(F)(F)F)C(F)(F)F)cc1)CCCCC2` [Compound 48, 4-(1,1,1,3,3,3-Hexafluoro-2-hydroxypropan-2-yl)-N-(3-methoxy-6,7,8,9-tetrahydro-5H-benzo[7]annulen-2-yl)benzamide], in series [1] (setting [3]), the EC90 came out at 2.8 µM. Half-maximal cytotoxicity in series [2] (CC50) was put at 28.9 µM.

As to `CC(C)(C)c1ccc(C(=O)Nc2cc3c(cc2CO)CCCCC3)cc1` [Compound 29], in series [1] (setting [3]), the EC90 is > 10 µM. For the same compound, in series [2], the CC50 was > 30 µM.

Turning to `CC(C)(C)c1ccc(C(=O)Nc2cc3c(cc2[N+](=O)[O-])CCCCC3)cc1` [Compound 22, 4-(tert-butyl)-N-(3-nitro-6,7,8,9-tetrahydro-5H-benzo[7]annulen-2-yl)benzamide], in series [1] (setting [3]), the EC90 was > 30 µM. For the same compound, in series [2], the CC50 is > 30 µM.

On to `COc1cc2c(cc1NC(=O)Cc1cccs1)CCCCC2` [Compound 73, N-(3-Methoxy-6,7,8,9-tetrahydro-5H-benzo[7]annulen-2-yl)-2-(thiophen-2-yl)acetamide], for which the EC90 in series [1] (setting [3]) came to 18.7 µM. In series [2], the CC50 is > 30 µM.

As for `COc1cc2c(cc1NC(=O)c1ccccc1)CCCCC2` [Compound 83, N-(3-methoxy-6,7,8,9-tetrahydro-5H-benzo[7]annulen-2-yl)benzamide], the EC90 in series [1] (setting [3]) is > 10 µM. The CC50 in series [2] was > 30 µM.

With `COc1cc2c(cc1NC(=O)c1ccc(C(C)(C)C)cc1)CCCCN2` [Compound 64, 4-(tert-butyl)-N-(8-methoxy-2,3,4,5-tetrahydro-1H-benzo[b]azepin-7-yl)benzamide], in series [1] (setting [3]), the EC90 was 3.3 µM. In series [2], the CC50 is > 30 µM.

As to `CC(C)(C)c1ccc(C(=O)Nc2cc3c(cc2O)CCCCC3)cc1` [Compound 15, 4-(tert-butyl)-N-(3-hydroxy-6,7,8,9-tetrahydro-5H-benzo[7]annulen-2-yl)benzamide], in series [1] (setting [3]), the EC90 came out at 0.4 µM. Besides, the CC50 in series [2] was > 30 µM.

`CN(C(=O)c1ccc(C(C)(C)C)cc1)c1ccc2c(c1)CCCCC2` [Compound 28, 4-(tert-butyl)-N-methyl-N-(6,7,8,9-tetrahydro-5H-benzo[7]annulen-2-yl)benzamide]: in series [1] (setting [3]), the EC90 is > 10 µM. Further, the CC50 in series [2] is > 30 µM.
